Experimental data as given in paper PMC9138505, “Small Molecule 20S Proteasome Enhancer Regulates MYC Protein Stability and Exhibits Antitumor Activity in Multiple Myeloma” (Biomedicines, 2022).
“And” between values parts separate entries of the source, which are not always exact repeats. Equal entries are not always repeated. Where two headings read alike, the source gives them in different places.

Tests used:
[1] = system: RPMI-8226 subcutaneous xenograft; assay: RPMI-8226 xenograft tumor model
[2] = system: human constitutive 20S proteasome; design: method as in PMID 29897236; conditions: i.e., 1000%; cited from earlier work
[3] = system: MYC; assay: MYC degradation in MM cells, Western blot; assay type: cell-based, human; conditions: RPMI-8226 cells
Experimental: Western blot: RPMI-8226 cells were grown to approximately 80% confluency in a T-75 flask. Cells were treated with either vehicle (DMSO) or TCH-165 at the indicated concentrations, for 4 h. In experiments involving bortezomib, cells were pre-treated with bortezomib (5 μM) for 1 h before adding TCH-165 or vehicle for a further 4 h. Cells were pelleted and washed with chilled PBS buffer (2X) and resuspended in chilled RIPA buffer supplemented with protease inhibitor cocktail (Sigma Aldrich; Burlington, MA, USA). Total protein was quantified by bicinchoninic acid assay (BCA assay, Thermofisher Scientific; Waltham, MA, USA), normalized to 2 mg/mL and boiled with 5X SDS loading buffer. Lysates (30 μg) were resolved on a 4–20% Tris/glycine gel and transferred to a PVDF membrane. The membrane was probed with anti MYC (Cell Signaling; cat#5605; Danvers, MA, USA) and anti-GAPDH-HRP (Santa Cruz; sc-47724 HRP; Dallas TX, USA) antibodies.

[4] = system: MYC Reporter (Luc)-HCT-116 cells; assay: MYC-Luc reporter assay; assay type: cell-based
Experimental: The MYC Reporter (Luc)-HCT-116 Cell line, Catalog #60520, was bought from BPS Bioscience. MYC reporter (Luc)-HCT-116 cells were seeded in a white, clear bottom, 96-well microplate at 25,000 cells/well, in McCoy’s 5A media supplemented with 10% FBS and 1% penicillin/streptomycin. The plate was incubated at 37 °C with 5% CO2 overnight. The next day, cells were treated with 0.0 µM, 0.1 µM, 1.0 µM, 2.5 µM, 5.0 µM, 10 µM, or 20 µM TCH-165, in Opti-MEM supplemented with 0.5% FBS, 1% non-essential amino acids, 1 mM Sodium Pyruvate and 1% penicillin/streptomycin. The plate was incubated at 37 °C with 5% CO2 for 16 h. Firefly luminescence was measured using the One-Step Luciferase Assay System from BPS Biosciences.

[5] = Pharmacokinetic assessment in CD-1 mice; assay type: in vivo; conditions: for Cmax / Tmax: po, 100 mg/kg
Experimental: The PK study was carried out with CD-1 mice (males, 6–8 weeks of age, n = 3 per treatment group) weighing between 24.9 g to 33.7 g immediately prior to dosing. TCH-165 (100 mg/kg) was administered by oral gavage, as a homogeneous suspension in a 3:7 (v/v) propylene glycol: 5% dextrose as a vehicle. A second dose of 100 mg/kg TCH-165 was administered approximately 8 h post-initial gavage. Blood was collected at 0.5 h, 1 h, 2 h, 4 h, 8 h, 9 h, 10 h, 12 h, and 16 h post-initial gavage in lithium heparin tubes. Plasma was separated by centrifugation and analyzed using mass spectrometry.

[6] = system: NCI-H929 cells; assay: Cell viability, CellTiter-Glo, 72 h; assay type: cell-based; conditions: Homo sapiens; NCI-H929, 72 h; CI by 3-parameter curve
Experimental: (§1) RPMI-8226, L363 and NCI-H929 cells were obtained from ATCC (Manassas, VA, USA) and were maintained in RPMI medium supplemented with 10% fetal bovine serum, and 100 U/mL penicillin/streptomycin, at 37 °C with 5% CO2. DMSO was used as the compound vehicle or vehicle control at a 0.1% final concentration for both cell culture and enzyme assay.
(§2) Error bars represent SD for triplicate wells.

[7] = system: L363 cells; assay: Cell viability, CellTiter-Glo, 72 h; assay type: cell-based; conditions: Homo sapiens, L-363; L363, 72 h
Experimental: as §1, §2

[8] = system: RPMI-8226 cells; assay: Cell viability, CellTiter-Glo, 72 h; assay type: cell-based, human; conditions: RPMI-8226, 72 h
Experimental: as §1, §2

[9] = Tolerance in dogs (clinical observations, body weight, CBC, clinical chemistry); assay type: in vivo, beagle dogs; conditions: beagles
Experimental: Adult beagle dogs (male, 12 months of age, n = 3), weighing approximately 10 kg, received a […] of the test compound at 500 mg bid delivered in capsule form. Blood (approximately 2.5 mL) was collected into lithium heparin tubes at 0, 1 h, 2 h, 4 h, 8 h, and 24 h post-day 1 and post-day 5 dose for PK assessment using mass spectrometry. Blood (approximately 2 mL) was also collected and divided into EDTA and standard clot tubes on day 6 post-dose for determination of CBC and clinical chemistry parameters, respectively, and analyzed at the Michigan State University Veterinary Diagnostic Laboratory. Clinical observations were conducted daily on non-dosing days and twice on dosing days.

- loss of body weight ([1]; SCID mice, 100 mg/kg bid oral): < 10%
- EC50 ([4]; Homo sapiens, stably transfected HCT-116 cells, 16 h, 95% CI 2.46–2.95, read-out: EC50 of decrease of MYC-mediated luciferase transcription): 2570 nM
- Cmax ([5]; male, CD-1, mouse, plasma, CD-1 mice, 100 mg/kg oral bid, second dose 8 h after the first, read-out: Cmax following the second dose): 1430 ± 625 nM
- Tmax ([5]; male, CD-1, mouse, plasma, CD-1 mice, 100 mg/kg oral bid, second dose 8 h after the first, read-out: Tmax following the second dose): 12 h
- Cmax ([5]; male, CD-1, mouse, plasma, CD-1 mice, 100 mg/kg oral gavage, plasma, read-out: Cmax following the first dose): 932 ± 184 nM
- Tmax ([5]; male, CD-1, mouse, plasma, CD-1 mice, 100 mg/kg oral gavage, read-out: Tmax following the first dose): 2 h
- AUC ([5]; male, CD-1, mouse, plasma, mice, means, 100 mg/kg bid oral, read-out: AUC (nM) (0-16 for mice)): 14 µM·h
- AUC(0-t) ([5]; male, mouse, plasma, CD-1 mice, 100 mg/kg oral bid, trapezoidal method, read-out: mean AUC (0–16 h)): 14 µM·h
- metabolic lability of the ester moiety (by LC-MS) ([5]; mouse PK study): not metabolically labile
Structure (SMILES): CCOC(=O)[C@]1(c2ccccc2)N=C(c2ccc(OC)cc2)N(Cc2ccccc2)[C@@H]1c1ccc(NCc2ccccc2)cc1 [TCH-165]
- reduction of tumor growth compared to vehicle control ([1]; 100 mg/kg bid oral gavage, after 42 days, p < 0.05): 75.71% and 76%
- average tumor volume ([1]; after 42 days, TCH-165 100 mg/kg bid oral, bortezomib 0.375 reduced to 0.09 mg/kg i.v. 3X per week): 304.43 (±49.50) mm^3
- enhancement of 20S-mediated proteolysis [2]: ~10 fold
- efficacy of TCH-165 on MYC protein levels with proteasome blocked ([3]; TCH-165 5 μM with BTZ 5 μM): nearly completely abrogated
- MYC protein levels compared to vehicle control ([3]; TCH-165 5 μM, 4 h): reduced MYC protein levels
- MYC-mediated luciferase transcription with addition of bortezomib ([4]; TCH-165 3 μM after bortezomib 10 nM, 2 h pre-incubation): restored luciferase transcription back to the levels of the vehicle control
- CC50 [6]: 4300 nM
- CC50 [7]: 5000 nM
- CC50 ([8]; Homo sapiens): ~1000 nM
- CC50 [8]: 900 nM
- body weight change ([9]; 50 mg/kg bid oral capsule, five consecutive days): < 1%
- clinical observations, body weight, complete blood counts and clinical chemistry panel compared to pre-dose status ([9]; 50 mg/kg bid oral capsule, five days): no significant changes
- notable change in the clinical chemistry profile ([9]; day 5 of administration): increase in plasma iron concentrations
